Our source for the IC50 values is ChEMBL document CHEMBL3886504, “Pyridinones/pyrazinones, method of making, and method of use thereof” (2016).

By IC50 is commonly meant the midpoint of a concentration-inhibition curve.

For the experiment, the target named is Tyrosine-protein kinase BTK (Homo sapiens, UniProt Q06187). The experiment is described as follows: Biochemical Btk Assay: A generalized procedure for a standard biochemical Btk Kinase Assay that can be used to test Formula I compounds is as follows. A master mix minus Btk enzyme is prepared containing 1x Cell Signaling kinase buffer (25 mM Tris-HCl, pH 7.5, 5 mM beta-glycerophosphate, 2 mM dithiothreitol, 0.1 mM Na3VO4, 10 mM MgCl2), 0.5 μM Promega PTK Biotinylated peptide substrate 2, and 0.01% BSA. A master mix plus Btk enzyme is prepared containing 1x Cell Signaling kinase buffer, 0.5 μM PTK Biotinylated peptide substrate 2, 0.01% BSA, and 100 ng/well (0.06 mU/well) Btk enzyme. Btk enzyme is prepared as follows: full length human wildtype Btk (accession number NM-000061) with a C-terminal V5 and 6xHis tag was subcloned into pFastBac vector for making baculovirus carrying this epitope-tagged Btk.
Tyrosine-protein kinase BTK, sequence (Q06187 whole entry): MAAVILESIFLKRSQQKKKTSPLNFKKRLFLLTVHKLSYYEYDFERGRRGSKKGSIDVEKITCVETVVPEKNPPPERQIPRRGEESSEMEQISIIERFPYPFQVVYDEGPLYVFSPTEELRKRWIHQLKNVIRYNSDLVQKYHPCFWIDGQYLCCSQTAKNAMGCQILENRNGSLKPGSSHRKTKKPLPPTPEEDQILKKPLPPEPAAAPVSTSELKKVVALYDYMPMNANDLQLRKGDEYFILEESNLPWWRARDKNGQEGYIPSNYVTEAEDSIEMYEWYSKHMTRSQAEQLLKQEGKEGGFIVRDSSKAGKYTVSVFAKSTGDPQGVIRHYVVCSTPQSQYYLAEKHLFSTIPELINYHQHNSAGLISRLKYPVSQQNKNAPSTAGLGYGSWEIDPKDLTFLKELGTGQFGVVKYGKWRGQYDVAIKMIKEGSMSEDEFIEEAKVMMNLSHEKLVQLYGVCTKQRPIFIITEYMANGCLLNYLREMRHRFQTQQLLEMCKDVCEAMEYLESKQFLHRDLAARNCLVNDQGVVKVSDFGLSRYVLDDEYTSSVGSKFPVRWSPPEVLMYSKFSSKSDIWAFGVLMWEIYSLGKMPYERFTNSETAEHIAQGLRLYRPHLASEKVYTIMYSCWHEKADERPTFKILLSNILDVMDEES
On to `Cc1c(-c2cn(C)c(=O)c(Nc3ccc(C4C(=O)N(C)CCN4C)cc3)n2)cccc1N1Cc2cc(C(C)(C)C)ccc2C1=O` (stereo not drawn), for which the IC50 came to 0.0294 µM.
As to `Cc1c(-c2cn(C)c(=O)c(Nc3ccc(C(=O)N4CCOCC4)cc3)n2)cccc1N1Cc2cc(C(C)(C)C)ccc2C1=O`, the IC50 is 0.0364 µM.
With `Cc1c(-c2cn(C)c(=O)c(Nc3ccc(C4C(=O)N(C)CCN4C)cc3)n2)cccc1N1Cc2cc(N3CCCCC3)ccc2C1=O` (stereo not drawn), the IC50 stood at 0.245 µM.
